Test [1] has as its system Phytophthora infestans. The class given is in vivo. The settings on record: systemic; preparation poured onto standard soil of young tomato plants; inoculated 3 days after treatment; 100% rel. humidity, ca. 20°C; evaluated 3 days after inoculation; compared with prior-art comparison substances.
In test [2] the test system is Phytophthora infestans. The class given is in vivo. Conditions: protective; young tomato plants sprayed to dripping wet, then inoculated with spore suspension; 100% rel. humidity, ca. 20°C; evaluated 3 days after inoculation; compared with prior-art comparison substances.

Like-named read-outs stand apart in the source and are kept apart here.

As to `C#CCOCC(=O)N(C=C)c1c(C)cccc1C` [Beispiel 9, N-Propargyloxyacetyl-N-vinyl-2,6-dimethylanilin], in test [1], the Wirksamkeit result was “deutliche Überlegenheit in der Wirksamkeit gegenüber dem Stand der Technik”.

In the case of `C=C(C)N(C(=O)Cn1cncn1)c1c(C)cccc1C` [Beispiel 8, N-(1-Methylvinyl)-N-(1,2,4-triazol-1-yl-acetyl)-2,6-dimethylanilin], the Wirksamkeit result in test [2] was “deutliche Überlegenheit in der Wirksamkeit gegenüber dem Stand der Technik”.

`C=C(C)N(C(=O)COC)c1c(C)cccc1C` [Beispiel 1, N-Me-^1 thoxyacetyl-N-(1-methylvinyl)-2,6-dimethylanilin]: the Wirksamkeit entry in test [2] and in test [1] was “deutliche Überlegenheit in der Wirksamkeit gegenüber dem Stand der Technik” in each case.

The values are drawn from patent EP0075167B1 (priority 1981, dated 1983).
